Legend:
Type in all cases: cell-based
[1] = test system: Actinomyces naeslundii (ATCC 43146), Lactobacillus casei (ATCC 334), Streptococcus oralis (ATCC 35037), Veillonella parvula (ATCC 17745) and Fusobacterium …; test: Example 2: planktonic growth (OD600) in healthy biofilm model; details: for % planktonic growth inhibition: compound 0.01 wt. %, 24 hours, OD600
Experimental: (§1) A similar test protocol to Example 1 was performed and tested for its effect in the inhibition of planktonic growth and inhibition of biofilm formation
(§2) The species used for biofilm formation were: Actinomyces naeslundii (ATCC 43146). Lactobacillus casei (ATCC 334), Streptococcus oralis (ATCC 35037), Veillonella parvula (ATCC 17745) and Fusobacterium nucleatum (ATCC 10953). Strains were grown under anaerobic conditions at 37° C. for 72 hours. All the bacteria were grown on an anaerobic blood agar.
(§3) The formula for the anaerobic blood agar was as follows: 52 g/l Brain Heart Infusion Agar (DIFCO), and after autoclaving the following products are added: 1 ml/l baemin from a solution 5 mg/ml, 1 ml/l of vitamin K1 from a solution 100 μg/ml and 50 ml of horse blood. A 24 well microtiter for cell culture (Nalgene Nunc International, Denmark) was used to generate in vitro dental biofilms.
(§4) Wells were filled with 800 μl of the mucin growth medium (MGM), a modification of the medium used by Kinniment et al. (Kinniment, S. L., Wimpenny. J. W., Adams, D., and Marsh, P. D. (1996) Development of a steady-state oral microbial biofilm community using the constant-depth film fermenter. Microbiology 142 (Pt 3): 631-638) which presents a high concentration of proteins: 2.5 g/l mucin, 5 g/l Heart Infusion Broth (DIFCO), 2.0 g/l sodium bicarbonate, 1.0 g/l yeast extract and 0.1 g/l cysteine and 4 ml resazurin from a solution 25 mg/100 ml.
The pH is adjusted to 7.4 prior to autoclaving. After autoclaving the following products was added: 1 ml/l haemin from a solution 5 mg/ml and 1 mL/l of vitamin K1 from a solution 100 μg/ml. Sterile hydroxyapatite discs of 7 mm×1.8 mm (Clarkson Inc., USA) was later placed into the wells. […]
(§5) After 24 hours planktonic phase was saved to measure growth at OD600 and hydroxyapatite disks were washed with sterile PBS and stained with safranine 0.1% for 15 minutes. […] Absorbance at 492 nm measures the amount of safranine retained by the biofilm.

[2] = test system: five representative oral bacterial species: A. viscosus, L. casei, S. oralis, V. parvula and F. nucleatum; test: Example 1: bacterial growth in the supernatant media of healthy biofilm model (absorbance); details: for % bacterial reduction (A): compound 0.01 wt. %, 48 hours, reduction in absorbance of supernatant media relative to disks treated with media alone
Experimental: (§6) 0.5″ Ca^2+-deficient hydroxyapatite (HAP) disks were coated with UV-sterilized human saliva overnight.
(§7) After 1 hour, excess treatment was removed by aspiration and disks were inoculated with 1 ml of bacteria from a continuous culture system at an OD(600) of about 0.2. The continuous culture system was maintained for approximately three months at 37° C. and contained five representative oral bacterial species: A. viscosus, L. casei, S. oralis, V. parvula and F. nucleatum. Previous work has shown this mix to form repeatable biofilms that can serve as a representation of the more complex mix of 500-700 bacterial species found in dental plaque.
(§8) The inoculated scHAP disks were incubated for 48 hours at 37° C. to allow a biofilm to form on them. After 48 hours of biofilm formation, disks were transferred to test tubes containing 1 ml of 0.25% trypsin solution. Disks were incubated at 37° C. with shaking for 45 minutes. The tubes were briefly vortexed to resuspend the bacteria, and the supernatants were then transferred to a fresh 24 well plate. Plates were […] for 2 minutes to pellet any residual HAP flakes and the supernatants were removed to fresh plates so that their absorbance could be measured at 610 nm. All samples were tested in triplicate and the average of the three wells was determined.
In addition to the absorbance of the trypsin-digested resuspended bacterial solution, similar absorbance measurements were also taken of the final supernatant media after the biofilms were allowed to grow for 48 hours.
The effect of 2-deoxy-D-glucose on bacterial growth in the supernatant media in which the biofilms were grown is shown in the table below.

[3] = test system: biofilm of five representative oral bacterial species: A. viscosus, L. casei, S. oralis, V. parvula and F. nucleatum; test: Example 1: healthy biofilm formation on saliva-coated HAP disks (absorbance at 610 nm after trypsin); details: for biofilm inhibition (in words): 0.01 wt. %, Example 1; for % biofilm inhibition (B) / % biofilm inhibition efficiency (C): compound 0.01 wt. %; for % biofilm inhibition (B): 48 hours biofilm, reduction in absorbance relative to disks treated with media alone; for % biofilm inhibition efficiency (C): C=B/A×100%
Experimental: as §6, §7, §8

[4] = test system: biofilm of Actinomyces naeslundii (ATCC 43146), Lactobacillus casei (ATCC 334), Streptococcus oralis (ATCC 35037), Veillonella parvula (ATCC 17745) and …; test: Example 2: biofilm formation on hydroxyapatite discs (safranine staining, absorbance at 492 nm); details: for biofilm inhibition (in words): 0.01 wt. %, Example 2; for % biofilm inhibition: compound 0.01 wt. %, 24 hours, safranine, absorbance at 492 nm
Experimental: as §1, §2, §3, §4
The pH is adjusted to 7.4 prior to autoclaving. After autoclaving the following products was added: 1 ml/l haemin from a solution 5 mg/ml and 1 mL/l of vitamin K1 from a solution 100 μg/ml. Sterile hydroxyapatite discs of 7 mm×1.8 mm (Clarkson Inc., USA) was later placed into the wells. In order to form the acquired pellicle the discs were allowed to stay at least 60 hours in contact with the medium under anaerobic conditions prior inoculation. This period of pre-incubation allows checking for possible contaminations and adjusts the final pH to 7.5.
Each of the strains grown on agar was resuspended in MGM medium until reach a turbidity of a McFarlan 3 (approximately 10^8 CFU/ml). Finally, 1 ml of each suspension from the different strains was mixed and 50 μl of this suspension was added into each of the wells in the microtiter plate. Microtiter plates were incubated under anaerobic conditions at 37° C. in an anaerobic chamber. A control of growth was performed in parallel. […]
as §5

[5] = test system: pathogenic biofilm spiked with P. gingivalis; test: Example 3: pathogenic biofilm model spiked with P. gingivalis; details: overall conclusion, no data given
Experimental: A similar experiment was conducted using a pathogenic biofilm model. Biofilms were inoculated as above for the healthy biofilms. Initial bacterial attachment and biofilm formation was allowed to proceed for 4 hours. After the initial 4 hours, each biofilm was spiked with 100 μL of an overnight culture of P. gingivalis. Biofilms were then allowed to grow for another 48 hours prior to trypsin treatment, and absorbance measurements were taken as described above.

Compound | planktonic growth inhibition (in words) ([1]; 0.01 wt. %, Example 2) | % planktonic growth inhibition [1] | bacterial reduction (in words) ([2]; 0.01 wt. %, Example 1) | % bacterial reduction (A) [2] | biofilm inhibition (in words) [3] | % biofilm inhibition (B) [3] | % biofilm inhibition efficiency (C) [3] | biofilm inhibition (in words) [4] | % biofilm inhibition [4] | inhibition of oral biofilm formation (in words) [5]
Cl.NCC(O)CCC(N)C(=O)O (racemic) [DL-5-hydroxylysine HCl, reference compound] | no planktonic growth inhibition | 0.00% | significant bacterial reduction | 21.45% | negligible biofilm inhibition | 5.85% | 27.27% | minimal biofilm inhibition | 5.91% | 
O=CC[C@@H](O)[C@H](O)[C@H](O)CO [2-deoxy-D-glucose] |  |  |  | 9.81% |  | 30.54% | 311.31% |  |  | 
O=C[C@H](F)[C@@H](O)[C@H](O)[C@H](O)CO [2-fluoro-2-deoxy-D-glucose] |  |  |  | 0.00% | effective and efficient inhibitor of biofilm formation | 46.50% | >>>1000% |  |  | very good inhibitors of oral biofilm formation
C[C@@H](O)[C@@H](O)[C@H](O)[C@@H](O)C=O [6-deoxy-D-glucose] |  |  |  | 1.54% | effective and efficient inhibitor of biofilm formation | 25.33% | 1644.81% |  |  | very good inhibitors of oral biofilm formation
CCCCCCCCCCCCCCCC[n+]1ccccc1 [CPC, cetylpyridinium chloride] |  |  |  | 65.44% |  |  |  |  |  | 
N[C@H](C=O)[C@@H](O)[C@H](O)[C@H](O)CO [D-mannosamine, 2-amino-2-deoxy-D-mannose] |  | 0.00% |  |  |  |  |  | effective inhibition of biofilm formation | 34.01% | 
Oc1cc(Cl)ccc1Oc1ccc(Cl)cc1Cl [Triclosan] |  |  |  | 85.63% |  |  |  |  |  | 
Benzalkonium chloride [reference compound] |  |  |  | 88.21% |  | 52.58% | 59.61% |  |  | 

From patent US11471394B2, “Oral care compositions containing deoxy sugar antimetabolites” (Colgate-Palmolive Company, priority 2013, dated 2022)
